Reference: patent publication US7893289B2, “Adamantanamines and neramexane salts of thiomolybdic and thiotungstic acids” (SSV Therapeutics, Inc., priority 2007, dated 2011)

What was measured:
NMDA receptor = assay: Blockage of NMDA-induced seizure activity and lethality in mice pretreated with the antagonist; format: in vivo; conditions: for mice survived following NMDA induced seizures: male CD-1 mice, groups of 5, sc 20 min before NMDA 200 mg/kg IP, 4 h observation, highest equivalent memantine dose (memantine hydrochloride 30 mg/kg sc); for protection in the NMDA-induced seizure/mortality test: sc, Example 4 at equivalent memantine dose, Examples 1 and 2 administered as suspensions
Description: Briefly, the test measures blockage of seizure activity and lethality in mice produced by the administration of NMDA when pretreated with the antagonists. [see Leander, J. D., et al., Brain Res. 448, 115-120 (1988) and Parsons, C. G., et al., Neuropharmacol 34, 1239-1258; (1995)].
Test protocol: Groups of 5 male CD-1 mice weighing 24±2 g were used. Male CD-1 (Crl.) mice were provided by BioLasco Taiwan (under Charles River Laboratories Technology License). Space allocations for animals were as follows: 29×18×13 cm for 5 mice. Mice were maintained in a controlled temperature (22° C.-24° C.) and humidity (60%-80%) environment with 12 h light/dark cycles for at least one week in MDS Pharma Services—Taiwan Laboratory prior to use. Free access to standard lab chow for mice [MF-18 (Oriental Yeast Co., Ltd., Japan)] and RO water was granted. [All aspects of this work including housing, experimentation and disposal of animals were performed in general accordance with the Guide for the Care and Use of Laboratory Animals (National Academy Press, Washington, D.C., 1996).]
Test substance was administered by subcutaneous (sc) injection 20 min before challenge with NMDA 200 mg/kg by intraperitoneal injection (IP). The animals were placed individually in glass jars and observed over a period of 4 h for presence of clonic convulsions, tonic convulsions and mortality. The onset of clonic and tonic convulsions as well as death was recorded and incidence of clonic seizures, tonic seizures and death was reported. Inhibition of NMDA (200 mg/kg, IP)-induced tonic convulsions/mortality (mainly mortality) in more than 50 percent (>50%) of the 5 mice during the following 4 h indicates possible NMDA receptor antagonist activity. Memantine hydrochloride at 30 mg/kg sc was used as positive control.
The vehicle used for dissolution was 20% aqueous DMSO.

[1] = ambient conditions in air and humidity, after 50 days; cited from earlier work
[2] = Solubility in the dosing vehicle (20% aqueous DMSO); format: physicochemical

## CC12CC3CC(C)(C1)CC([NH3+])(C3)C2.CC12CC3CC(C)(C1)CC([NH3+])(C3)C2.[S]=[Mo](=[S])([S-])[S-] [Example 3, Bis(1-ammonium-3,5-dimethyladamantane) tetrathiomolybdate]
NMDA receptor; NMDA-induced clonic seizures and mortality in mice, equivalent dose (30 mg)
  more effective than memantine at an equivalent dose: 40%
NMDA receptor
  mice survived following NMDA induced seizures: 4/5
NMDA receptor; mice, sc pretreatment at three doses, NMDA 200 mg/kg IP
  inhibition of NMDA-induced clonic seizures and mortality: in a dose dependent manner
NMDA receptor; mice, highest equivalent memantine dose, compared with memantine
  time to seizures: notably prolonged
NMDA receptor; mice, low, medium and high doses, without DMSO solvate, similar to the high dose of memantine
  protection from tonic seizures: protected from tonic seizures

## CC1(C)CC(C)(C)CC(C)([NH3+])C1.CC1(C)CC(C)(C)CC(C)([NH3+])C1.[S]=[Mo](=[S])([S-])[S-] [Example 4, Bis(1-ammonium-1,3,3,5,5-pentamethylcyclohexane)tetrathiomolybdate]
NMDA receptor; mice
  protection in the NMDA-induced seizure/mortality test: complete protection

## [NH4+].[NH4+].[SH-].[SH-].[S]=[Mo]=[S] [TM, diammonium tetrathiomolybdate]
[1]
  loss in activity: ~55%

## CC12CC3CC(C)(C1)CC(N)(C3)C2 [memantine, 1-amino-3,5-dimethyladamantane, reference compound]
NMDA receptor
  mice survived following NMDA induced seizures: 5/5

## Bis(1-methylammoniumadamantane) tetrathiomolybdate [Example 2]
NMDA receptor; mice
  protection in the NMDA-induced seizure/mortality test: not protective
[2]
  solubility in the vehicle: inadequate solubility
